Data taken from US7528135B2, “Pyridine derivatives as H3 antagonists” (Hoffmann-La Roche Inc., priority 2004, dated 2009).

molecular target: T1, histamine 3 receptor (H3R) (Homo sapiens, UniProt Q9Y5N1); assay: Binding assay with 3H-(R)α-methylhistamine (competition binding, human HR3-CHO membranes); conditions: competition against 3H(R)α-Methylhistamine (1 nM = Kd), membrane of the human HR3-CHO cell line; Ki calculated from IC50 by Cheng-Prusoff
T1 construct: expressed in transfected cells; host or cells: CHO cells (HR3-CHO cell line), membrane preparation
Procedure: Binding Assay with ^3H-(R)α-methylhistamine
Saturation binding experiments were performed using HR3-CHO membranes prepared as described in Takahashi, K, Tokita, S., Kotani, H. (2003) J. Pharmacol. Exp. Therapeutics 307, 213-218.
An appropriate amount of membrane (60 to 80 μg protein/well) was incubated with increasing concentrations of ^3H(R)α-Methylhistamine di-hydrochloride (0.10 to 10 nM). Non specific binding was determined using a 200 fold excess of cold (R)α-Methylhistamine dihydrobromide (500 nM final concentration). The incubation was carried out at room temperature (in deep-well plates shaking for three hours). The final volume in each well was 250 μl. The incubation was followed by rapid filtration on GF/B filters (pre-soaked with 100 μl of 0.5% PEI in Tris 50 mM shaking at 200 rpm for two hours). The filtration was made using a cell-harvester and the filter plates were then washed five times with ice cold washing buffer containing 0.5 M NaCl. After harvesting, the plates were dried at 55° C. for 60 min, then we added scintillation fluid (Microscint 40, 40 microl in each well) and the amount of radioactivity on the filter was determined in Packard top-counter after shaking the plates for two hours at 200 rpm at room temperature.
Binding Buffer: 50 mM Tris-HCl pH 7.4 and 5 mM MgCl2x6H2O pH 7.4. Washing Buffer: 50 mM Tris-HCl pH 7.4 and 5 mM MgCl2x6H2O and 0.5 M NaCl pH 7.4.
Indirect measurement of affinity of H3R inverse agonists: twelve increasing concentrations (ranging from 10 μM to 0.3 nM) of the selected compounds were always tested in competition binding experiments using membrane of the human HR3-CHO cell line. An appropriate amount of protein, e.g. approximately 500 cpm binding of RAMH at Kd, were incubated for 1 hour at room temperature in 250 μl final volume in 96-well plates in presence of ^3H(R)α-Methylhistamine (1 nM final concentration=Kd). […]
All compounds were tested at a single concentration in duplicates. […] Ki's were calculated from IC50 based on Cheng-Prusoff equation (Cheng, Y, Prusoff, W H (1973) Biochem Pharmacol 22, 3099-3108).

T1 sequence (Q9Y5N1 whole entry): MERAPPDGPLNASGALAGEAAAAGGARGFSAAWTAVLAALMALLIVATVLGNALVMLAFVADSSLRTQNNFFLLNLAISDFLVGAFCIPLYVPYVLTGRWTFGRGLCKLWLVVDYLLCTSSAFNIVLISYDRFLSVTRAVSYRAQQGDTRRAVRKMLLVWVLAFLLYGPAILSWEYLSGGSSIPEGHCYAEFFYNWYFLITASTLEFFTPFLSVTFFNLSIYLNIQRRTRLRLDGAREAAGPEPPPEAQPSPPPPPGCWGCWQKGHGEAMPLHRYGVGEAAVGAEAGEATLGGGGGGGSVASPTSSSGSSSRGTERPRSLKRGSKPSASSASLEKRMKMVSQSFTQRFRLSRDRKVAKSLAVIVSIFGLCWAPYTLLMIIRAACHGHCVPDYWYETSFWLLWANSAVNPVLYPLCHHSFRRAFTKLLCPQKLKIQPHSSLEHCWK

SMILES | Ki [nM]
COc1ccc(CC(=O)Nc2ccc(N3CCN(C4CCCC4)CC3)nc2)cc1OC [Example 53, N-[6-(4-cyclopentyl-piperazin-1-yl)-pyridin-3-yl]-2-(3,4-dimethoxy-phenyl)-acetamide] | 40
CN(C)S(=O)(=O)Nc1ccc(N2CCN(C3CCCC3)CC2)nc1 [Example 34, N-[6-(4-cyclopentyl-piperazin-1-yl)-pyridin-3-yl]-diemethylaminosulfonamide] | 81
CCN1CCN(c2ccc(NC(=O)NCc3ccccc3)cn2)CC1 [Example 3, 1-benzyl-3-[6-(4-ethyl-piperazin-1-yl)-pyridin-3-yl]-urea] | 39
